The values that follow come from patent US8673908B2, “Kynurenine production inhibitor” (Kyowa Hakko Kirin Co., Ltd., priority 2008, dated 2014).

The subject of assay [1] is kynurenine production in IFN-γ-treated KATO-III cells. Briefly: Inhibitory activity on kynurenine production (Test Example 1). The class given is cell-based. To be noted: Homo sapiens, IFN-γ treatment, culture for 96 hours, read-out: IC50 value, inhibition of kynurenine production. In a few lines:
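Read-out is absorbance at 480 nm of medium treated with trichloroacetic acid, then p-dimethylaminobenzaldehyde, to quantify kynurenine. DMSO-only wells with and without IFN-γ serve as references. Cells were KATO-III, 2,000 per well, 96 h at 37 °C/5% CO2 with compound (DMSO ≤0.1%) and IFN-γ at 31.25 ng/mL in the added suspension.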

The subject of assay [2] is 4T1 mouse breast cancer cells. In words: Antitumor effect in mice transplanted with 4T1 cells (Test Example 2). The class given is in vivo, BALB/c mice. To be noted: for T/C: oral, once or twice daily. Here is the method: 5-week-old BALB/c mice (male, supplied from CLEA Japan, Inc.) were purchased. After quarantine and stabilization, mice which favorably gained their weight and had no apparent abnormalities were used in the test. The test started from 6 weeks of age. The mice were housed in groups of 6 mice per plastic cage with free access to commercial solid feed and water in a breeding room in which the room temperature was 19° C. to 25° C., the humidity was 30 to 70% and the light was kept on for 12 hours a day (7:00 a.m. to 7:00 p.m.).
The abdominal hair of the BALB/c mice was shaved on the day before the test. Transplantation was performed by subcutaneous injection of a suspension containing 1×10^6 4T1 mouse breast cancer cells in 100 μL of phosphate buffered saline (PBS) from the shaved region of each mouse.
When the tumor volume reached 30 to 80 mm^3, the mice were divided into groups so that the average tumor volume of each group was equal. The test compound was suspended in 0.5% (w/v) methylcellulose 400 cP (manufactured by Wako Pure Chemical Industries, Ltd.), and the suspension was orally administered to each mouse of the corresponding group once or twice daily. The tumor volume was calculated using the formula (a×b^2)/2 (a: tumor major axis, b: tumor minor axis). The tumor volume (V) was measured twice or three times a week, and the tumor growth rate (V/V0) was calculated by division of the tumor volume (V) by the tumor volume on the day of the first administration (V0). The T/C (treatment group/control group) value was calculated by division of the V/V0 value of the test compound treatment group by the V/V0 value of the control group, based on which the antitumor effect was evaluated.
Statistical analysis was performed on the tumor volumes of the control group and the treatment group, using student's T-test. If the p value was <0.05, we considered the difference significant.

A further assay has as its system kynurenine production. To be noted: competes with tryptophan; cited from earlier work.
A further assay deals with T cells. To be noted: in the presence of IDO-expressing cancer cells and dendritic cells; cited from earlier work.
A further assay has as its system allogeneic pregnant mice. To be noted: cited from earlier work.
A further assay relates to mouse melanoma cells. To be noted: cited from earlier work.
[3] abbreviates: Day 4 and Day 7 after administration.

Where two headings read alike, the source gives them in different places. A value given as a limit tells only on which side of the number the result lay.

In the case of `CC(Oc1nc2ccccc2nc1NS(=O)(=O)c1cccc(Cl)c1Cl)c1cccnc1` (stereo not shown) [Compound 16, 2,3-dichloro-N-{3-[1-(pyridin-3-yl)ethoxy]quinoxalin-2-yl}-benzenesulfonamide], the IC50 (usually the concentration that inhibits the measured activity by half) in assay [1] is less than 1000 nM. The T/C came out at 0.62 in assay [2] (Day 3, dose 100 mg/kg) and 0.58 in assay [2] (Day 7, dose 100 mg/kg). Also, in assay [2] (Day 3 and Day 7 after administration), the “tumor growth inhibition (in words)” value is “significantly inhibited tumor growth”.

For the compound `O=S(=O)(Nc1nc2ccccc2nc1OC(c1cccnc1)C(F)(F)F)c1cccc(Cl)c1Cl` (stereo not shown) [Compound 20, 2,3-dichloro-N-{3-[2,2,2-trifluoro-1-(pyridin-3-yl)ethoxy]-quinoxalin-2-yl}benzenesulfonamide], the IC50 in assay [1] was less than 1000 nM. Besides, the T/C amounted to 0.68 in assay [2] (Day 4, dose 10 mg/kg) and 0.69 in assay [2] (Day 7, dose 10 mg/kg). Also, the “tumor growth inhibition (in words)” value in assay [2] (setting [3]) is recorded as “significantly inhibited tumor growth”.

As for `Cn1cc(C[C@H](N)C(=O)O)c2ccccc21` [Compound 1-MT, 1-methyltryptophan], in the assay with kynurenine production, the “effect on kynurenine production” value is recorded as “inhibits kynurenine production”. For the same compound, the “suppression of T cell proliferation” value with T cells is given as “cancelled”. Also, the MHC-restricted rejection entry in the assay on allogeneic pregnant mice is on record as “induces major histocompatibility complex (MHC)-restricted rejection”. In addition, the antitumor effect result in the assay with mouse melanoma cells (immunodeficient mice) is listed as “disappears”; with mouse melanoma cells (mice bearing mouse melanoma cells), “shows an antitumor effect”.

On to `CCCS(=O)(=O)Nc1nc2ccccc2nc1OC(c1cccnc1)C(F)(F)F` (stereo not shown) [Compound 179, N-{3-[2,2,2-trifluoro-1-(pyridin-3-yl)ethoxy]quinoxalin-2-yl}propane-1-sulfonamide], for which the IC50 in assay [1] is less than 1000 nM. Besides, the T/C in assay [2] (Day 4, dose 0.1 mg/kg) is on record as 0.76; in assay [2] (Day 7, dose 0.1 mg/kg), 0.50. In addition, the “tumor growth inhibition (in words)” value in assay [2] (setting [3]) is listed as “significantly inhibited tumor growth”.

`Cc1nn(C)c(Cl)c1S(=O)(=O)Nc1nc2ccccc2nc1OC(C1CCSCC1)C(F)(F)F` (stereo not shown) [Compound 130, 5-chloro-1,3-dimethyl-N-{3-[2,2,2-trifluoro-1-(tetrahydro-2H-thiopyran-4-yl)ethoxy]quinoxalin-2-yl}-1H-pyrazole-4-sulfonamide]: the IC50 in assay [1] is less than 1000 nM.

For the compound `O=S(=O)(Nc1nc2ccccc2nc1OCCCc1cccnc1)c1cccc(Cl)c1Cl` [Compound 159, 2,3-dichloro-N-{3-[3-(pyridin-3-yl)propoxy]quinoxalin-2-yl}benzenesulfonamide], in assay [1], the IC50 was less than 1000 nM.

In the case of `CN(C)Cc1ccc(C(Oc2nc3ccccc3nc2NS(=O)(=O)c2ccccc2Cl)C(F)(F)F)cc1` (stereo not shown) [Compound 62, 2-chloro-N-{3-[2,2,2-trifluoro-1-(4-dimethylaminomethyl-phenyl)ethoxy]quinoxalin-2-yl}benzenesulfonamide], the IC50 in assay [1] is less than 1000 nM.

On to `CCCS(=O)(=O)Nc1nc2ccccc2nc1O[C@@H](c1cccnc1)C(F)(F)F` [Compound 313, (S)—N-{3-[2,2,2-trifluoro-1-(pyridin-3-yl)ethoxy]-quinoxalin-2-yl}propane-1-sulfonamide], for which the IC50 in assay [1] fell in the range of 1000 to 10000 nM.

Regarding `O=S(=O)(Nc1nc2ccccc2nc1OC(c1cc2ccccc2o1)C(F)(F)F)c1ccccc1Cl` (stereo not shown) [Compound 104, 2-chloro-N-{3-[2,2,2-trifluoro-1-(benzofuran-2-yl)ethoxy]-quinoxalin-2-yl}benzenesulfonamide], the IC50 in assay [1] is less than 1000 nM.
